According to US4268503A, “Antibacterial composition” (Fujisawa Pharmaceutical Co., Ltd., priority 1979, dated 1981):

Experiments:
Type in all cases: cell-based
Klebsiella pneumoniae 8 = assay: Test 8: synergistic activity in various combination ratios (isobologram, growth); design: key: the symbol "+" means that the test microorganism grew; the symbol "-" means that the test microorganism did not grow
Procedure: Into a Nutrient broth (Difco) containing prescribed amounts of monosodium salt of 3-(N-formyl-N-hydroxyamino)-propylphosphonic acid and gentamicin sulfate, was inoculated 0.5% of 10-fold dilution of cultured broth of pathogen which was cultured overnight in Nutrient broth (Eiken). After the incubation was carried out at 37° C. for 18 hours, the growth of the test organism was observed.

[1] = test system: Serratia marcescens 1421-4; assay: Tests 2 and 3: MIC and synergism (FIC) in vitro; conditions: 14214, S. marcescens 1421-4, Nutrient agar, 10^5 cells/ml, 37° C., 20 hours
Procedure: (§1) On a Nutrient agar (Difco) containing prescribed amount of each of monosodium salt of 3-(N-formyl-N-hydroxyamino)propylphosphonic acid, monosodium salt of ampicillin and a mixture of 3-(N-formyl-N-hydroxyamino)propylphosphonic acid and monosodium salt of ampicillin (1:1 by weight), there was streaked a loopful of cultured broth of each pathogen, which was cultured overnight in Nutrient broth (Difco), in a concentration of 10^5 cells/ml. After the incubation was carried out at 37° C. for 20 hours, MIC values were determined.
(§2) FIC values and FIC Index were calculated in substantially the same manner as described in Test 1.
(§3) Synergistic activity of 3-(N-formyl-N-hydroxyamino)propylphosphonic acid and cefazolin; that of 3-(N-formyl-N-hydroxyamino)propylphosphonic acid and ticarcillin; and that of 3-(N-formyl-N-hydroxyamino)propylphosphonic acid and nocardicin A were tested in vitro in substantially the same manner as described in the above Test 2.

[2] = test system: Enterobacter cloacae 1401-4; assay: Tests 2 and 3: MIC and synergism (FIC) in vitro; conditions: 14014, E. cloacae 1401-4, Nutrient agar, 10^5 cells/ml, 37° C., 20 hours
Procedure: as §1, §2, §3

[3] = test system: Proteus mirabilis 1432-75; assay: Tests 2 and 3: MIC and synergism (FIC) in vitro; conditions: Proteus mirabilis, 143275, 20 h
Procedure: as §1, §2, §3

[4] = test system: Staphylococcus epidermidis 1601-1; assay: Tests 2 and 3: MIC and synergism (FIC) in vitro; conditions: 16011, S. epidermidis 1601-1, Nutrient agar, 10^5 cells/ml, 37° C., 20 hours
Procedure: as §1, §2, §3

[5] = test system: Salmonella typhimurium 1406; assay: Tests 2 and 3: MIC and synergism (FIC) in vitro; conditions: Salmonella enterica, 20 h
Procedure: as §1, §2, §3

[6] = test system: Klebsiella pneumoniae NCTC 418; assay: Tests 2 and 3: MIC and synergism (FIC) in vitro; conditions: NCTC418, 20 h
Procedure: as §1, §2, §3

With gentamicin the “growth of test microorganism” value (Klebsiella pneumoniae 8; gentamicin sulfate 0.001, phosphonic acid 0 mcg/ml) was “+”, the “growth of test microorganism” value (Klebsiella pneumoniae 8; gentamicin sulfate 0.003, phosphonic acid 0 mcg/ml) was “+” and the “growth of test microorganism” value (Klebsiella pneumoniae 8; gentamicin sulfate 0.006, phosphonic acid 0 mcg/ml) was “+”. For the same molecule, the “growth of test microorganism” value (Klebsiella pneumoniae 8; gentamicin sulfate 0.01, phosphonic acid 0 mcg/ml) was “+”, the “growth of test microorganism” value (Klebsiella pneumoniae 8; gentamicin sulfate 0.025, phosphonic acid 0 mcg/ml) was “+” and the “growth of test microorganism” value (Klebsiella pneumoniae 8; gentamicin sulfate 0.05, phosphonic acid 0 mcg/ml) was “-”.

In the case of `O=CN(O)CCCP(=O)(O)O` [3-(N-formyl-N-hydroxyamino)propylphosphonic acid], the “growth of test microorganism” value (Klebsiella pneumoniae 8; gentamicin sulfate 0, phosphonic acid 0.78 mcg/ml, 37° C., 18 hours) is reported as “+”, the “growth of test microorganism” value (Klebsiella pneumoniae 8; gentamicin sulfate 0, phosphonic acid 1.56 mcg/ml) is reported as “+” and the “growth of test microorganism” value (Klebsiella pneumoniae 8; gentamicin sulfate 0, phosphonic acid 3.13 mcg/ml) is reported as “+”. For the same molecule, the “growth of test microorganism” value (Klebsiella pneumoniae 8; gentamicin sulfate 0, phosphonic acid 6.25 mcg/ml) was “+”, the “growth of test microorganism” value (Klebsiella pneumoniae 8; gentamicin sulfate 0, phosphonic acid 12.5 mcg/ml) was “+” and the “growth of test microorganism” value (Klebsiella pneumoniae 8; gentamicin sulfate 0, phosphonic acid 25 mcg/ml) was “-”.

For `CC1(C)S[C@@H]2[C@H](NC(=O)[C@H](C(=O)O)c3ccsc3)C(=O)N2[C@H]1C(=O)O` [ticarcillin], the MIC [1] was 25 µg/mL, the MIC [2] was 50 µg/mL and the MIC [3] was 0.78 µg/mL. For the same molecule, the MIC [4] was 3.13 µg/mL, the MIC [5] was 1.56 µg/mL and the MIC [6] was 100 µg/mL.
